Assay results as given in patent EP4291552B1, “MODULATORS OF COMPLEX I” (Boehringer Ingelheim International GmbH, priority 2021, dated 2022).

The compounds below were run on mice neuroblastoma cells (HT-22) (assay: Determination of Cellular Protection (HT22)). Conditions: Mus musculus, HT-22, 16 h, read-out: HT22 IC50.

| Compound | IC50 [nM] |
| --- | --- |
| CN(C)c1ccc2c(c1)/C(=C1\CCCN1)C(=O)N2C [Compound 1] | 282 |
| CC(Nc1ccc2c(c1)/C(=C1\COCCN1)C(=O)N2C1CCOCC1)c1cncnc1 (centres unmarked) [Compound 147] | 422 |
| O=C1/C(=C2/COCCN2)c2cc(NC3CCOCC3)ccc2N1C1CCOC1 (centres unmarked) [Compound 32] | 205 |
| CC(C)N1CCC(Nc2ccc3c(c2)/C(=C2\COCCN2)C(=O)N3C2CCOCC2)CC1 [Compound 19] | 168 |
| CCC(C)Nc1ccc2c(c1)/C(=C1\COCCN1)C(=O)N2C1CCOCC1 (centres unmarked) [Compound 59] | 22 |
| CC(C)Nc1ccc2c(c1)/C(=C1\CN(C3COC3)CCN1)C(=O)N2C(C)C [Compound 114] | 104 |
| CCOC(=O)N1CCC(N2C(=O)/C(=C3/COCCN3)c3cc(NC(C)C)ccc32)CC1 [Compound 10] | 31 |
| CC1CCC(C)N1c1ccc2c(c1)/C(=C1\COCCN1)C(=O)N2C1CCOCC1 (centres unmarked) [Compound 156] | 71 |
| CCOC(=O)N1CCC(N2C(=O)/C(=C3/COCCN3)c3cc(N4CCCC4)ccc32)CC1 [Compound 118] | 33 |
| O=C1/C(=C2/COCCN2)c2cc(NCC3CCOC3)ccc2N1C1CCOCC1 (centres unmarked) [Compound 151] | 184 |
| O=C1/C(=C2/COCCCN2)c2cc(NC3CCOC3)ccc2N1C1CCOCC1 (centres unmarked) [Compound 141] | 646 |
| CC(C)N1CCN/C(=C2\C(=O)N(C)c3ccc(N4CCCC4)cc32)C1 [Compound 23] | 173 |
| CCC(C)Nc1ccc2c(c1)/C(=C1\COCCN1)C(=O)N2C(C)C (centres unmarked) [Compound 54] | 24 |
| CCC(CC)Nc1ccc2c(c1)/C(=C1\COCCN1)C(=O)N2C(C)C [Compound 171] | 23 |
| CC(C)Nc1ccc2c(c1)/C(=C1\CN(C3COC3)CCN1)C(=O)N2C1CCOCC1 [Compound 5] | 220 |
| CC(C)N1C(=O)/C(=C2/COCCN2)c2cc(NCC3CCOC3)ccc21 (centres unmarked) [Compound 39] | 102 |
| CC1CCCC1Nc1ccc2c(c1)/C(=C1\COCCN1)C(=O)N2C1CCOCC1 (centres unmarked) [Compound 102] | 3 |
| CC(Nc1ccc2c(c1)/C(=C1\COCCN1)C(=O)N2C1CCOCC1)c1cnccn1 (centres unmarked) [Compound 146] | 211 |
| CC(C)N1CCC(N2C(=O)/C(=C3/COCCN3)c3cc(N(C(C)C)C(C)C)ccc32)CC1 [Compound 122] | 944 |
| CC(C)Nc1ccc2c(c1)/C(=C1\CCCN1C)C(=O)N2C(C)C [Compound 115] | 30 |
| CC(C)Nc1ccc2c(c1)/C(=C1\CCCCN1)C(=O)N2C(C)C [Compound 133] | 23 |
| CN(C)c1ccc2c(c1)/C(=C1\CCN(C(=O)OCc3ccccc3)CCN1)C(=O)N2C [Compound 108] | 128 |

| Compound | IC50 [nM] |
| --- | --- |
| CC1OCCC1Nc1ccc2c(c1)/C(=C1\COCCN1)C(=O)N2C1CCOCC1 (centres unmarked) [Compound 174] | 143 |
| CC(C)N1C(=O)C(=C2CCOCC2)c2cc(NC3CCCC3)ccc21 [Compound 116] | 9 |
| CC(C)N1C(=O)/C(=C2/COCCN2)c2cc(NCc3cc[nH]n3)ccc21 [Compound 74] | 144 |
| O=C1/C(=C2/COCCN2)c2cc(NC3CCC(F)(F)CC3)ccc2N1C1CCOCC1 [Compound 78] | 37 |
| CC(C)N1C(=O)/C(=C2/CCCN2C)c2cc(NC3CCC3)ccc21 [Compound 161] | 20 |
| CC(C)N1C(=O)/C(=C2/COCCN2)c2cc(N3CCCC3)ccc21 [Compound 130] | 45 |
| CC(C)N1C(=O)/C(=C2/CCCCN2)c2cc(N(C3CCC3)C3CCC3)ccc21 [Compound 113] | 18 |
| CC(C)N1C(=O)/C(=C2/COCCN2)c2cc(NCC(C)(C)C)ccc21 [Compound 145] | 4 |
| O=C1/C(=C2/COCCN2)c2cc(NC3CCC3)ccc2N1C1COC1 [Compound 51] | 33 |
| CC(C)Nc1ccc2c(c1)/C(=C1\COCCN1)C(=O)N2C1COC1 [Compound 135] | 158 |
| CC(C)Nc1ccc2c(c1)/C(=C1\COCCN1)C(=O)N2C1COCCOC1 [Compound 26] | 59 |
| CC1CCN(c2ccc3c(c2)/C(=C2\COCCN2)C(=O)N3C2CCOCC2)CC1 [Compound 85] | 264 |
| CC(C)N1C(=O)C(=C2CCOCC2)c2cc(NC3CCOC3)ccc21 (centres unmarked) [Compound 160] | 471 |
| CN(C)c1ccc2c(c1)/C(=C1\CCOCCN1)C(=O)N2C [Compound 41] | 983 |
| COCC(C)Nc1ccc2c(c1)/C(=C1\COCCN1)C(=O)N2C1COC1 (centres unmarked) [Compound 137] | 886 |
| CN(C)c1ccc2c(c1)/C(=C1\CCCCN1)C(=O)N2C [Compound 62] | 162 |
| CC(C)Nc1ccc2c(c1)/C(=C1\CN(C(C)C)CCN1)C(=O)N2C1CCN(C(C)C)CC1 [Compound 8] | 41 |
| CC(Nc1ccc2c(c1)/C(=C1\COCCN1)C(=O)N2C1CCOCC1)c1cccnc1 (centres unmarked) [Compound 100] | 397 |
| CC(Nc1ccc2c(c1)/C(=C1\COCCN1)C(=O)N2C(C)C)C1CCCC1 (centres unmarked) [Compound 56] | 2 |
| CC(C)Nc1ccc2c(c1)/C(=C1\COCC(C)N1)C(=O)N2C1CCOCC1 (centres unmarked) [Compound 33] | 37 |
| CC(Nc1ccc2c(c1)/C(=C1\COCCN1)C(=O)N2C(C)C)c1nccs1 (centres unmarked) [Compound 144] | 85 |
| CC(C)Nc1ccc2c(c1)/C(=C1\COCCN1)C(=O)N2C [Compound 63] | 134 |

| Compound | IC50 [nM] |
| --- | --- |
| CC(C)N1C(=O)C(=C2CCOCC2)c2cc(N)ccc21 [Compound 157] | 1660 |
| CN(C)c1ccc2c(c1)/C(=C1\CCCN1)C(=O)N2C1CCN(C(=O)C(F)(F)F)CC1 [Compound 153] | 170 |
| CC(C)N1CCC2(CC1)CN/C(=C1\C(=O)N(C(C)C)c3ccc(N4CCCC4)cc31)CO2 [Compound 91] | 9 |
| CC(Nc1ccc2c(c1)/C(=C1\COCCN1)C(=O)N2C(C)C)c1cccnc1 (centres unmarked) [Compound 15] | 115 |
| CC(C)N1C(=O)C(=C2CCOCC2)c2cc(N3CCCC3)ccc21 [Compound 7] | 256 |
| CN(C)c1ccc2c(c1)/C(=C1\CCCN1)C(=O)N2C1CCOCC1 [Compound 42] | 951 |
| CC(C)Nc1ccc2c(c1)/C(=C1\CCCN1C)C(=O)N2C1CCOCC1 [Compound 48] | 353 |
| CN1CCC/C1=C1/C(=O)N(C2CCOCC2)c2ccc(NC3CCC3)cc21 [Compound 9] | 38 |
| CN1C(=O)/C(=C2/COCCN2)c2cc(NC3CCC3)ccc21 [Compound 154] | 18 |
| CC(=O)N1CC[C@H](N2C(=O)/C(=C3/COCCN3)c3cc(NC(C)C)ccc32)C1 [Compound 170] | 159 |
| CC(C)N1C(=O)/C(=C2/COCCN2)c2cc(NC3COC3)ccc21 [Compound 98] | 166 |
| O=C1/C(=C2/COCCN2)c2cc(NC3CCCC3)ccc2N1C1COCCOC1 [Compound 50] | 13 |
| CC(=O)N1CCC2(CC1)CN/C(=C1\C(=O)N(C(C)C)c3ccc(NC(C)C)cc31)CO2 [Compound 34] | 49 |
| CC(C)Nc1ccc2c(c1)/C(=C1\CC3(CN1)COC3)C(=O)N2C1CCOCC1 [Compound 165] | 253 |
| CC1OCCC1Nc1ccc2c(c1)/C(=C1\COCCN1)C(=O)N2C(C)C (centres unmarked) [Compound 125] | 112 |
| CC(C)N1C(=O)/C(=C2/COCCN2)c2cc(NCC3(C)COC3)ccc21 [Compound 127] | 176 |
| CC(C)N1C(=O)/C(=C2/COCCN2)c2cc(NCC3CC3)ccc21 [Compound 58] | 19 |
| O=C1/C(=C2/COCCN2)c2cc(N3CCCC3)ccc2N1C1CCOCC1 [Compound 117] | 22 |
| COC1COCCC1Nc1ccc2c(c1)/C(=C1\COCCN1)C(=O)N2C(C)C (centres unmarked) [Compound 16] | 693 |
| CC(Nc1ccc2c(c1)/C(=C1\COCCN1)C(=O)N2C1CCOCC1)C1CCCC1 (centres unmarked) [Compound 61] | 12 |
| COCC(C)Nc1ccc2c(c1)/C(=C1\COCCN1)C(=O)N2C1CCOC1 (centres unmarked) [Compound 52] | 198 |
| O=C1/C(=C2/CCOCCN2)c2cc(NC3CCC3)ccc2N1C1CCOCC1 [Compound 120] | 51 |

| Compound | IC50 [nM] |
| --- | --- |
| CC(C)Nc1ccc2c(c1)/C(=C1\COCCN1)C(=O)N2[C@H]1CCN(C2COC2)C1 [Compound 69] | 141 |
| CC(C)Nc1ccc2c(c1)/C(=C1\COCCCN1)C(=O)N2C1CCOCC1 [Compound 167] | 134 |
| CC(C)N1CCC2(CC1)CN/C(=C1\C(=O)N(C(C)C)c3ccc(N4C(C)CCC4C)cc31)CO2 (centres unmarked) [Compound 139] | 18 |
| CN1CCC(Nc2ccc3c(c2)/C(=C2\COCCN2)C(=O)N3C2CCOCC2)CC1 [Compound 150] | 286 |
| CC(C)Nc1ccc2c(c1)/C(=C1\COC3(CCN(C(C)C)CC3)CN1)C(=O)N2C(C)C [Compound 138] | 6 |
| CN1CCC/C1=C1/C(=O)N(C2CCOCC2)c2ccc(NC3CCOC3)cc21 (centres unmarked) [Compound 49] | 1250 |
| O=C1/C(=C2/COCCN2)c2cc(NC3COC3)ccc2N1C1CCOCC1 [Compound 175] | 1190 |
| Nc1ccc2c(c1)/C(=C1\CCCN1)C(=O)N2C1CCOCC1 [Compound 83] | 2080 |
| CC(C)Nc1ccc2c(c1)/C(=C1\COCCN1)C(=O)N2C1CCOCC1 [Compound 3] | 71 |
| O=C(CCO)Nc1ccc2c(c1)/C(=C1\COCCN1)C(=O)N2C1CCOC1 (centres unmarked) [Compound 169] | 336 |
| O=C1/C(=C2/COCCN2)c2cc(NC3CCC3)ccc2N1C1CCOCC1 [Compound 132] | 21 |
| CN1C(=O)/C(=C2/CCOCCN2)c2cc(N3CCCC3)ccc21 [Compound 107] | 69 |
| CC(Nc1ccc2c(c1)/C(=C1\COCCN1)C(=O)N2C1CCOCC1)C1CCC1 (centres unmarked) [Compound 148] | 16 |
| CC(C)Nc1ccc2c(c1)/C(=C1\COCCN1)C(=O)N2C1CCOC1 (centres unmarked) [Compound 163] | 52 |
| CN1CCN/C(=C2\C(=O)N(C)c3ccc(N4CCCC4)cc32)CC1 [Compound 64] | 65 |
| CC(C)N1C(=O)/C(=C2/COCCN2)c2cc(NC3CCN(C)CC3)ccc21 [Compound 38] | 38 |
| CC(C)Nc1ccc2c(c1)C(=C1CCOCC1)C(=O)N2C1CCOCC1 [Compound 6] | 207 |
| CC(Nc1ccc2c(c1)/C(=C1\COCCN1)C(=O)N2C(C)C)c1ccccn1 (centres unmarked) [Compound 71] | 131 |
| O=C1/C(=C2/COCCN2)c2cc(N3CCOCC3)ccc2N1C1CCOCC1 [Compound 4] | 3140 |
| O=C1/C(=C2/COCCN2)c2cc(NC3CCCC3)ccc2N1C1COC1 [Compound 65] | 18 |
